A word on the EC50: it is the concentration giving half of the maximal effect.

For assay [1], the system named is HCV genotype 1b (Con1) replicon in HUH-7 cells. The experiment in a line: HCV replicon luciferase reporter assay, genotype 1b. The assay is classed as cell-based. The conditions noted are these: Hepatitis C virus, Huh-7, 72 h, HCV genotype 1b replicon luciferase, 3 days incubation, read-out: LE_1b (EC50, range). In outline:
(§1)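 Replicon inhibition for both genotypes was measured as Renilla luciferase signal (EnduRen, 7.5 μM final, 2 h) after 3-day, 37° C exposure of replicon-bearing HUH-7 cells in 4% FCS DMEM, 0.5% DMSO. The 1b construct carries S1179I; the 1a H77 construct carries P1496L and S2204I. Twenty-point, 3-fold dilutions were fitted four-parametrically for EC50, and CC50 was taken from multiplexed Cell Titer-Blue.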

Assay [2] has as its system HCV genotype 1a (H77 strain) replicon in HUH-7 cells. The experiment in a line: HCV replicon luciferase reporter assay, genotype 1a. It counts as cell-based. As to conditions: Hepatitis C virus, Huh-7, 72 h, HCV genotype 1a replicon luciferase, 3 days incubation, read-out: LE_1a (EC50, range). Summed up:
as §1

Regarding `CCCOc1cnc(O[C@@H]2C[C@H]3C(=O)N[C@]4(C(=O)NS(=O)(=O)C5CC5)C[C@H]4/C=C\CC[C@H](C)C[C@@H](C)[C@H](NC(=O)NC(C)(C)C(F)(F)F)C(=O)N3C2)c2ccccc12` [Compound 5098, (2R,6S,7R,9S,13aS,14aR,16aS,Z)—N-(cyclopropylsulfonyl)-7,9-dimethyl-5,16-dioxo-2-((4-propoxyisoquinolin-1-yl)oxy)-6-(3-(1,1,1-trifluoro-2-methylpropan-2-yl)ureido)-1,2,3,5,6,7,8,9,10,11,13a,14,14a,15,16,16a-hexadecahydrocyclopropa[e]pyrrolo[1,2-a][1,4]diazacyclopentadecine-14a-carboxamide], the half-maximal effective concentration (EC50) in assay [1] and in assay [2] was more than 87.4 nM throughout.
In the case of `CCCOc1cnc(O[C@@H]2C[C@H]3C(=O)N[C@]4(C(=O)NS(=O)(=O)C5CC5)C[C@H]4/C=C\CC[C@@H](C)C[C@@H](C)[C@H](NC(=O)NC(C)(C)C(F)(F)F)C(=O)N3C2)c2ccccc12` [Compound 5099, (2R,6S,7R,9R,13aS,14aR,16aS,Z)—N-(cyclopropylsulfonyl)-7,9-dimethyl-5,16-dioxo-2-((4-propoxyisoquinolin-1-yl)oxy)-6-(3-(1,1,1-trifluoro-2-methylpropan-2-yl)ureido)-1,2,3,5,6,7,8,9,10,11,13a,14,14a,15,16,16a-hexadecahydrocyclopropa[e]pyrrolo[1,2-a][1,4]diazacyclopentadecine-14a-carboxamide], the EC50 in assay [1] and in assay [2] was less than 5.46 nM throughout.
Take `[2H]C([2H])([2H])Oc1cnc(O[C@@H]2C[C@H]3C(=O)N[C@]4(C(=O)NS(=O)(=O)C5(C)CC5)C[C@H]4/C=C\CC[C@H](C)C[C@@H](C)[C@H](NC(=O)OC(C)(C)C)C(=O)N3C2)c2ccccc12` [Compound 5100, tert-butyl ((2R,6S,7R,9S,13aS,14aR,16aS,Z)-7,9-dimethyl-14a-(((1-methylcyclopropyl)sulfonyl)carbamoyl)-5,16-dioxo-2-((4-(trideuteromethoxy)isoquinolin-1-yl)oxy)-1,2,3,5,6,7,8,9,10,11,13a,14,14a,15,16,16a-hexadecahydrocyclopropa[e]pyrrolo[1,2-a][1,4]diazacyclopentadecin-6-yl)carbamate]: the EC50 in assay [1] and in assay [2] was less than 5.46 nM each time.
In the case of `[2H]C([2H])([2H])Oc1cnc(O[C@@H]2C[C@H]3C(=O)N[C@]4(C(=O)NS(=O)(=O)C5(C)CC5)C[C@H]4/C=C\CC[C@H](C)C[C@@H](C)[C@H](NC(=O)OC(C)(C)C(F)(F)F)C(=O)N3C2)c2ccccc12` [Compound 5102, 1,1,1-trifluoro-2-methylpropan-2-yl((2R,6S,7R,9S,13aS,14aR,16aS,Z)-7,9-dimethyl-14a-(((1-methylcyclopropyl)sulfonyl)carbamoyl)-5,16-dioxo-2-((4-(trideuteromethoxy)isoquinolin-1-yl)oxy)-1,2,3,5,6,7,8,9,10,11,13a,14,14a,15,16,16a-hexadecahydrocyclopropa[e]pyrrolo[1,2-a][1,4]diazacyclopentadecin-6-yl)carbamate], the EC50 in assay [1] and in assay [2] was less than 5.46 nM in each case.
Consider `[2H]C([2H])([2H])Oc1cnc(O[C@@H]2C[C@H]3C(=O)N[C@]4(C(=O)NS(=O)(=O)C5(C)CC5)C[C@H]4/C=C\CC[C@@H](C)C[C@@H](C)[C@H](NC(=O)OC(C)(C)C(F)(F)F)C(=O)N3C2)c2ccccc12` [Compound 5103, 1,1,1-trifluoro-2-methylpropan-2-yl((2R,6S,7R,9R,13aS,14aR,16aS,Z)-7,9-dimethyl-14a-(((1-methylcyclopropyl)sulfonyl)carbamoyl)-5,16-dioxo-2-((4-(trideuteromethoxy)isoquinolin-1-yl)oxy)-1,2,3,5,6,7,8,9,10,11,13a,14,14a,15,16,16a-hexadecahydrocyclopropa[e]pyrrolo[1,2-a][1,4]diazacyclopentadecin-6-yl)carbamate], for which the EC50 in assay [1] and in assay [2] was less than 5.46 nM in each case.

The record behind these values is patent US9499550B2 (BRISTOL-MYERS SQUIBB COMPANY, priority 2012, dated 2016).
